From article PMC8820820, “Feasibility and safety of targeting mitochondria for cancer therapy – preclinical characterization of gamitrinib, a first-in-class, mitochondriaL-targeted small molecule Hsp90 inhibitor” (Cancer Biology & Therapy, 2022)
pIC50: −log10 of the molar value. Where “and” joins values, the source holds several entries; their conditions need not be identical. Equal values may be shown once. Entries after “also recorded” stand apart in the source; their conditions may differ. Read-outs that look alike come from different tables or passages of the source.

Columns and labels:
tumor cell = system: tumor cell; parameters: method as in PMID 19229106, PMID 29348817; settings: in culture; read-out: IC50 of tumor cell killing; cited from earlier work
[1] = parameters: species or system beagle dogs; settings: dog, in vivo
Method: Eighteen male and female (5–6 mo old) purebred beagle dogs (Cumberland, VA) were acclimated for 47 d (20°C to 26°C, relative humidity 30–70%, 10 or greater air changes/h, and a 12-h light/dark cycle) prior to study initiation. Animals were given water ad libitum and Certified Canine Diet #5007 (PMI Nutrition International Certified LabDiet®) for 4 to 5 h each day. At study initiation, animal body weights ranged from 8.6 to 11.5 kg for males and 6.0 to 9.4 kg for females. At least 1 week prior to initiation of dosing, animals were fasted overnight, anesthetized, and a catheter attached to a subcutaneous vascular access port was surgically implanted into a jugular vein. Animals were acclimated to infusion jackets prior to catheter implantation surgery. Animals were infused with sterile saline at a dose rate of 5 mL/h when the vascular access ports were accessed and when animals were connected to the infusion system (except when dosed with the test or vehicle control article). The patency of each catheter was checked as needed. Prednisolone tablets were administered orally at 2 mg/kg the night prior to dosing. Diphenhydramine (5 mg/kg; IM injection 0.1 mL/kg, 50 mg/mL) was administered prior to dosing and post the start of infusion (d 1 only). Male and female dogs received dose levels of Gamitrinib of 1.25, 3.33 and 6.25 mg/kg/dose formulated as indicated above during a 1 h infusion on d 1, 8, 11, 15, 18, 22, 25, 29, 32, and 36 at a volume of 2 mL/kg. The vehicle control was as above. […] Dosing was stopped, and 23 of 24 animals were administered additional diphenhydramine, 11 were administered Flunixin meglumine and buprenorphine, and 6 were administered acepromazine. Symptoms subsided in all animals after completion of these interventions. As a result of these observations, the polysorbate levels, which were increased from 0.025% (w/v) to 0.125% (w/v) to minimize precipitation, were returned to the original concentrations; 2 mg/kg prednisone was administered orally the night prior to dosing; and the diphenhydramine pretreatment dose was updated to 5 mg/kg 15 to 30 min prior to dosing. Detailed observations were conducted for each animal up to seven times during the predose phase, prior to dosing on d 1, 8, 15, 22, 29, and 36 of the dosing phase, and on d 1, 7, and 14 of the recovery phase. Blood samples (1 mL) were collected via the cephalic vein 5, 15, and 30 min and 1, 4, 8, and 24 h post the end of infusion on d 8 and 36 of the dosing phase. Formalin-fixed and paraffin-embedded tissue samples collected at the end of the study (d 39) were processed for histologic examination.

Kv1.5 = Kv1.5 (Homo sapiens, UniProt P22460); assay: Ion channel screening; assay type: cell-based; settings: 10 µM
From the text: Ion channel screening. […] The parameters measured were the maximum inward current evoked on stepping to -20 mV from the 1st and 26th pulse. Human Kv4.3/KChIP2 currents were evoked from a holding potential of -80 mV by a series of four 500 msec pulses to 0 mV using a 1000 msec interval between pulses. The parameter measured was the amplitude of the outward current 50 msec after the onset of the 4th voltage step to 0 mV. […] Human Kv1.5 currents were evoked by a single pulse from a holding potential of -80 mV to a potential of 0 mV for 4 sec before returning to -80 mV. The parameters measured were the maximum amplitude of outward currents evoked at the beginning of the voltage pulse and at the end of the voltage step from -80 mV to 0 mV. Human KCNQ1/minK currents were evoked by a single pulse delivered from a holding potential of -80 mV to +60 mV for 4 sec before returning to -80 mV. The parameter measured was the maximum outward current evoked on stepping to +60 mV from the holding potential of -80 mV. hERG currents were evoked by a three-pulse protocol where voltage was first stepped to +40 mV for two sec from a holding potential of –80 mV to inactivate hERG channels. […] The parameter measured was the maximum inward current evoked upon stepping to -110 mV from the holding potential of -30 mV. […]

[2] = Gamitrinib pharmacokinetics in rat plasma, single IV dose; assay type: in vivo, Sprague-Dawley rats
Method: Sprague-Dawley rats (n = 3) were administered with a single intravenous (IV) dose of 1 mL Gamitrinib (5 mg/kg) formulated as described above without added microfluidization. Blood samples were collected via lateral tail vein using K2EDTA as an anticoagulant at 0.083, 0.25, 0.5, 1, 2, 4, and 24 h post-dose, chilled on ice, and centrifuged at 5000 rpm for 10 min. Aliquots (0.2 mL) of each plasma sample were stored frozen at −20°C. For analysis, 50 µL aliquots of the study samples were mixed with 50 µL of ACN/H2O (50:50), extracted by protein precipitation using ACN containing the internal standard Gamitrinib-d15 (100 ng/mL), and the aliquots of the supernatant were mixed with deionized water for Gamitrinib determination. Batch samples under analysis included a calibration curve, a matrix blank (blank rat plasma), a reagent blank, a control zero (blank rat plasma spiked with internal standard), and duplicate QC samples at three concentration levels (low, medium, and high) in addition to the study samples. Within each batch, the study samples were bracketed by calibration standards or QC samples. The lowest calibration standard served to evaluate system suitability at the beginning of each batch. […] Overall, the concentration of Gamitrinib was measured in 21 rat plasma samples in 1 analytical batch using LC-MS/MS data acquisition on a Shimadzu Nexera LC system coupled with an AB Sciex Triple Quad 5500 mass spectrometer. Chromatograms were integrated using Analyst 1.6.2 software. A weighted (1/x^2, x = concentration) linear regression was used to generate the calibration curve for Gamitrinib. […] The mean, standard deviation, precision, accuracy, and assay variability were calculated using Microsoft Excel.

Sequence of Kv1.5 (P22460 whole entry): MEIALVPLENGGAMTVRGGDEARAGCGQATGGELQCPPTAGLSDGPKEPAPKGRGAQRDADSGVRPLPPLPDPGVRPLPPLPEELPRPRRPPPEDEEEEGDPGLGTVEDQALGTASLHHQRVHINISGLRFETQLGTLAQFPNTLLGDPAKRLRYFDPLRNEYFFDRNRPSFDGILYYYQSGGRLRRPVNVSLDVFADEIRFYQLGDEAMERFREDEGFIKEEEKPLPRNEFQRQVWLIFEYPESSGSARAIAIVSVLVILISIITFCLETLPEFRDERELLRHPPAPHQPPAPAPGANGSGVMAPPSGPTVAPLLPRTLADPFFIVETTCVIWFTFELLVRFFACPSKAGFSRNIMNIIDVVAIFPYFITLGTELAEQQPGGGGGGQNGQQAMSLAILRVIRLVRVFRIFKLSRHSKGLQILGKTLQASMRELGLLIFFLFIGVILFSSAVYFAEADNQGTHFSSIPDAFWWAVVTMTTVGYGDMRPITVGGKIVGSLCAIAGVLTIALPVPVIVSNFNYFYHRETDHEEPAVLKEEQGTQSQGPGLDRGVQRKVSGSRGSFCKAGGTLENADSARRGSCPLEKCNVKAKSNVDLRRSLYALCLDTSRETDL

COC1C=CC=C(C)C(=O)NC2=CC(=O)C(NCCCCCC[P+](c3ccccc3)(c3ccccc3)c3ccccc3)=C(CC(C)CC(OC)C(O)C(C)C=C(C)C1OC(N)=O)C2=O.F[P-](F)(F)(F)(F)F (centres unmarked) [Gamitrinib]
pIC50 (tumor cell): 5.40 to 6.00 | AUC0–24 ([1]; 3.33 mg/kg): 1740 ± 713 ng·h/mL | Cmax ([1]; 3.33 mg/kg): 560 ± 404 ng/mL | AUC0–24 ([1]; 6.25 mg/kg): 3290 ± 1090 ng·h/mL | Cmax ([1]; 6.25 mg/kg): 1260 ± 556 ng/mL | inhibition of Kv1.5 currents (Kv1.5): 6.6 ± 1.3% | AUCINF ([2]; 5 mg/kg IV, Mean (n = 3)): 976.002 ng·h/mL | AUClast (AUC0-t) ([2]; 5 mg/kg IV, Mean (n = 3)): 783.1 ± 71.3 ng·h/mL and 783.199 ng·h/mL | CL ([2]; 5 mg/kg IV, Mean (n = 3)): 85.6 ± 5.8 mL/min/kg and 85.65 ± 5.85 mL/min/kg and 85.656 mL/min/kg | MRT ([2]; 5 mg/kg IV, Mean (n = 3)): 5.492 h | Vss ([2]; 5 mg/kg IV, Mean (n = 3)): 65.471 L/kg | Vz ([2]; 5 mg/kg IV, Mean (n = 3)): 91.159 L/kg | t1/2 ([2]; 5 mg/kg IV, Mean (n = 3)): 12.2 ± 1.55 h and 12.250 h | AUCINF ([2]; 5 mg/kg IV, Rat 1): 1051.752 ng·h/mL | AUClast ([2]; 5 mg/kg IV, Rat 1): 851.441 ng·h/mL | CL ([2]; 5 mg/kg IV, Rat 1): 79.233 mL/min/kg | Cmax ([2]; 5 mg/kg IV, Rat 1): 1153.712 ng/mL | MRT ([2]; 5 mg/kg IV, Rat 1): 5.539 h | Vss ([2]; 5 mg/kg IV, Rat 1): 58.230 L/kg | Vz ([2]; 5 mg/kg IV, Rat 1): 79.715 L/kg | t1/2 ([2]; 5 mg/kg IV, Rat 1): 11.623 h | AUCINF ([2]; 5 mg/kg IV, Rat 2): 957.472 ng·h/mL | AUClast ([2]; 5 mg/kg IV, Rat 2): 789.045 ng·h/mL | CL ([2]; 5 mg/kg IV, Rat 2): 87.035 mL/min/kg | Cmax ([2]; 5 mg/kg IV, Rat 2): 829.668 ng/mL | MRT ([2]; 5 mg/kg IV, Rat 2): 5.411 h | Vss ([2]; 5 mg/kg IV, Rat 2): 60.052 L/kg | Vz ([2]; 5 mg/kg IV, Rat 2): 83.678 L/kg | t1/2 ([2]; 5 mg/kg IV, Rat 2): 11.107 h | AUCINF ([2]; 5 mg/kg IV, Rat 3): 918.784 ng·h/mL | AUClast ([2]; 5 mg/kg IV, Rat 3): 709.112 ng·h/mL | CL ([2]; 5 mg/kg IV, Rat 3): 90.700 mL/min/kg | Cmax ([2]; 5 mg/kg IV, Rat 3): 1544.041 ng/mL | MRT ([2]; 5 mg/kg IV, Rat 3): 5.524 h | Vss ([2]; 5 mg/kg IV, Rat 3): 78.131 L/kg | Vz ([2]; 5 mg/kg IV, Rat 3): 110.085 L/kg | t1/2 ([2]; 5 mg/kg IV, Rat 3): 14.022 h | Gamitrinib plasma concentration ([2]; 5 mg/kg IV, animal 1, 5 min): 622.199 ng/mL | Gamitrinib plasma concentration ([2]; 5 mg/kg IV, animal 1, 15 min): 180.951 ng/mL | Gamitrinib plasma concentration ([2]; 5 mg/kg IV, animal 1, 30 min): 106.381 ng/mL | Gamitrinib plasma concentration ([2]; 5 mg/kg IV, animal 1, 60 min): 71.445 ng/mL | Gamitrinib plasma concentration ([2]; 5 mg/kg IV, animal 1, 120 min): 46.657 ng/mL | Gamitrinib plasma concentration ([2]; 5 mg/kg IV, animal 1, 240 min): 36.816 ng/mL | Gamitrinib plasma concentration ([2]; 5 mg/kg IV, animal 1, 1440 min): 11.946 ng/mL | Gamitrinib plasma concentration ([2]; 5 mg/kg IV, animal 2, 5 min): 526.229 ng/mL | Gamitrinib plasma concentration ([2]; 5 mg/kg IV, animal 2, 15 min): 211.686 ng/mL | Gamitrinib plasma concentration ([2]; 5 mg/kg IV, animal 2, 30 min): 114.230 ng/mL | Gamitrinib plasma concentration ([2]; 5 mg/kg IV, animal 2, 60 min): 65.903 ng/mL | Gamitrinib plasma concentration ([2]; 5 mg/kg IV, animal 2, 120 min): 43.125 ng/mL | Gamitrinib plasma concentration ([2]; 5 mg/kg IV, animal 2, 240 min): 34.776 ng/mL | Gamitrinib plasma concentration ([2]; 5 mg/kg IV, animal 2, 1440 min): 10.511 ng/mL | Gamitrinib plasma concentration ([2]; 5 mg/kg IV, animal 3, 5 min): 674.432 ng/mL | Gamitrinib plasma concentration ([2]; 5 mg/kg IV, animal 3, 15 min): 128.663 ng/mL | Gamitrinib plasma concentration ([2]; 5 mg/kg IV, animal 3, 30 min): 67.204 ng/mL | Gamitrinib plasma concentration ([2]; 5 mg/kg IV, animal 3, 60 min): 55.991 ng/mL | Gamitrinib plasma concentration ([2]; 5 mg/kg IV, animal 3, 120 min): 29.914 ng/mL | Gamitrinib plasma concentration ([2]; 5 mg/kg IV, animal 3, 240 min): 28.905 ng/mL | Gamitrinib plasma concentration ([2]; 5 mg/kg IV, animal 3, 1440 min): 10.365 ng/mL | generation of metabolite 17-AG ([2]; rats, IV Gamitrinib 5 mg/kg, plasma): without generation of 17-AG; also recorded: did not generate detectable levels; also recorded: no generation of 17-AG
